In test [1] the test system is ENA polypeptide antibodies (anti-Sm, anti-Rib, anti-ssA, anti-ssB). Kind of test: Serologic detection of ENA polypeptide antibodies by immunoblotting in serum of UV + LPS lupus model mice. The settings on record: for Anti-Rib / Anti-Sm / Anti-ssA / Anti-ssB: positive controls (artesunate 2 mg/kg*d, prednisone 1 mg/kg*d) by stomach perfusion; for ENA polypeptide antibodies found positive (FIG. 1): treated 14 days, positive controls (artesunate, prednisone). The class given is in vivo, BALB/c mice. Also on record: key to Anti-Rib: (+): positive; (−): negative; key to Anti-Sm / Anti-ssA / Anti-ssB: (+): positive; (−): negative; (++++): intenseintensity; (+++): stronger fluorescent intensity. As to the method:
(§1) The back of mice was shaved and acutely exposed to Ultraviolet of 2 h/d*3 d, with a distance of 30 cm. After exposure to UV, 2.5 mg/kg of LPS was administrated once by ip, and after 24 h, the model was successfully established; the mice in the normal control group received normal saline via ip. 24 h after injection of LPS (ip), medicines were given to the model mice by intragastric administration. Chlorogenic acid test groups received high, middle, and low doses of medicines, by intragastric administration at a respective dosage of 10 mg/kg*d, 20 mg/kg*d, and 40 mg/kg*d. The positive control group A received 2 mg/kg*d of artesunate by stomach perfusion, while the positive control group B received 1 mg/kg*d of prednisone by stomach perfusion. Mice in the model and normal control group all received 0.4 ml/mouse normal saline by gavage. After 15 days of administration, animals in each group were taken blood by separating eyeballs on days 14, 21, 28, and after cultured in water bath at 37° C. for 1 h, the blood sample was centrifugated at 2000 r/min for 5 min, to draw serum for use. On day 21, after blood collection, animals were sacrificed by dislocation, followed by collection of liver and kidney, and they were placed in fixative solutions of electron microscope and light microscrope, respectively. Serum of mice was diluted at 1:100 with special buffer solution of Shenzhen Hengjia, and then 200 μL of diluted serum was respectively added to the reactive tank with corresponding number, cultured in the incubator at 37° C. for 30 min, and washed with the buffer solution four times, 2 min for each time; 200 μL of diluted biotin goat anti-mouse IgG (1:100) was added, cultured in the incubator at 37° C. for 30 min, and then washed with the buffer solution four times, 2 min for each time; 100 μL of diluted HRP-avidin (1:100) was added, cultured in the incubator at 37° C. for 30 min, and then washed as mentioned-above; reactive solutions A and B were added till appearance of positive bands, then washed with the buffer solution. Compared with the standard bands of ENA polypeptide antibody spectrum in the same kit, if the positive bands appeared at 28/29,13.5 ku polypeptide; 15,16.5,38 kupolypeptide; 52 kupolypeptide and 47/48,45 kupolypeptide, that can be determined as anti-Sm, anti-Rib, anti-ssA, and anti-ssB positive antibody. Serum was diluted with PBS at 1:40, then 20-30 μL of diluted serum was dropped into the scrobiculus of HEp-2 cell sheets, each cell sheet for each group. In the process of dropping serum, it should be noted that the surface of cell sheet can not be touched. After addition of serum, cell sheet was placed in wet box and kept for 30 min at room temperature (25° C.). After 30 min, the cell sheet was taken out, and serum was carefully washed out with PBS, then carefully washed twice with PBS, 5 min for each time; after washing, the remained PBS was removed by special absorbent paper of […] company (In this process, it should be noted that becoming dry of cell substrates will affect the results). 20-30 μL of diluted (PBS, 1:100) FITC goat anti-mouse IgG was added by dropping, and then incubated in wet box at room temperature for 30 min. After washing with PBS, steps were same to above. The remained PBS was removed by absorbent paper, and 1-2 drops of fluorescent mounting media were added to the cell sheet. The cover glass was mounted, observed under Olympus BH-2 universal microscope, and then photographed.

In test [2] the test system is ANA. Kind of test: Serologic detection of ANA by immunofluorescence on HEp-2 cell sheets, serum of UV + LPS lupus model mice. The class given is in vivo, BALB/c mice. The following applies: artesunate, 28 days, ×200. As for the experimental part:
The back of mice was shaved and acutely exposed to Ultraviolet of 2 h/d*3 d, with a distance of 30 cm. After exposure to UV, 2.5 mg/kg of LPS was administrated once by ip, and after 24 h, the model was successfully established; the mice in the normal control group received normal saline via ip. 24 h after injection of LPS (ip), medicines were given to the model mice by intragastric administration. Chlorogenic acid test groups received high, middle, and low doses of medicines, by intragastric administration at a respective dosage of 10 mg/kg*d, 20 mg/kg*d, and 40 mg/kg*d. The positive control group A received 2 mg/kg*d of artesunate by stomach perfusion, while the positive control group B received 1 mg/kg*d of prednisone by stomach perfusion. Mice in the model and normal control group all received 0.4 ml/mouse normal saline by gavage. After 15 days of administration, animals in each group were taken blood by separating eyeballs on days 14, 21, 28, and after cultured in water bath at 37° C. for 1 h, the blood sample was centrifugated at 2000 r/min for 5 min, to draw serum for use. On day 21, after blood collection, animals were sacrificed by dislocation, followed by collection of liver and kidney, and they were placed in fixative solutions of electron microscope and light microscrope, respectively. Serum of mice was diluted at 1:100 with special buffer solution of Shenzhen Hengjia, and then 200 μL of diluted serum was respectively added to the reactive tank with corresponding number, cultured in the incubator at 37° C. for 30 min, and washed with the buffer solution four times, 2 min for each time; 200 μL of diluted biotin goat anti-mouse IgG (1:100) was added, cultured in the incubator at 37° C. for 30 min, and then washed with the buffer solution four times, 2 min for each time; 100 μL of diluted HRP-avidin (1:100) was added, cultured in the incubator at 37° C. for 30 min, and then washed as mentioned-above; reactive solutions A and B were added till appearance of positive bands, then washed with the buffer solution. Compared with the standard bands of ENA polypeptide antibody spectrum in the same kit, if the positive bands appeared at 28/29,13.5 ku polypeptide; 15,16.5,38 kupolypeptide; 52 kupolypeptide and 47/48,45 kupolypeptide, that can be determined as anti-Sm, anti-Rib, anti-ssA, and anti-ssB positive antibody. Serum was diluted with PBS at 1:40, then 20-30 μL of diluted serum was dropped into the scrobiculus of HEp-2 cell sheets, each cell sheet for each group. In the process of dropping serum, it should be noted that the surface of cell sheet can not be touched. After addition of serum, cell sheet was placed in wet box and kept for 30 min at room temperature (25° C.). […]

The subject of test [3] is lupus erythematosus model mice (kidney, liver). Briefly: Triple staining (silver staining) of kidney and liver sections under light microscope, lupus model mice. The class given is in vivo, BALB/c mice. The settings on record: positive controls (artesunate, prednisone); for basilar membrane of renal glomerulus and tubule, pathological section: 21 days; for glomerular basement membrane thickness compared with the normal mice (FIG. 9, FIG. 10): 28 days, ×50. As to the method:
(§2) The back of mice was shaved and acutely exposed to Ultraviolet of 2 h/d*3 d, with a distance of 30 cm. After exposure to UV, 2.5 mg/kg of LPS was administrated once by ip, and after 24 h, the model was successfully established; the mice in the normal control group received normal saline via ip. 24 h after injection of LPS (ip), medicines were given to the model mice by intragastric administration. Chlorogenic acid test groups received high, middle, and low doses of medicines, by intragastric administration at a respective dosage of 10 mg/kg*d, 20 mg/kg*d, and 40 mg/kg*d. The positive control group A received 2 mg/kg*d of artesunate by stomach perfusion, while the positive control group B received 1 mg/kg*d of prednisone by stomach perfusion. Mice in the model and normal control group all received 0.4 ml/mouse normal saline by gavage. After 15 days of administration, animals in each group were taken blood by separating eyeballs on days 14, 21, 28, and after cultured in water bath at 37° C. for 1 h, the blood sample was centrifugated at 2000 r/min for 5 min, to draw serum for use. On day 21, after blood collection, animals were sacrificed by dislocation, followed by collection of liver and kidney, and they were placed in fixative solutions of electron microscope and light microscrope, respectively.
[…] The thickness of slice is 3 μm, and at beginning of staining, wax was routinely deprived to water. After oxidation with 0.5% periodic acid, the slice was macerated in hexamine silver fluid for about 2 h (constant temperature 58° C.), washed with distilled water, dyed with hematoxylin for 1 min. After washing with water, the slice was dyed by dropping the ponceau staining solution for 5 min, differentiated with 70% ethanol, dehydrated with gradient ethanol, cleared with xylene, and sealed with neutral gum.

In test [4] the test system is lupus erythematosus model mice (renal glomerular capsule wall epithelial cells). Kind of test: Electron microscope observation of kidney samples, lupus model mice. The class given is in vivo, BALB/c mice. The following applies: positive controls (artesunate, prednisone), 21 days; compared with the model group. As to the method:
as §2, with “respectively. On day 21, the sample used for observation under electron microscope was fixed in mixed stationary solution of 2% paraformaldehyde+0.25% glutaral for 4 h, rinsed with TBS, treated with 1% osmic acid, followed by fixation for 1 h, rinsed with buffer solution, dehydrated with acetone, dyed with uranyl acetate for 2 h, macerated in Epon812 and embedded, and cut into slices with LEICA ultramicrotome. The slices were stained with lead solution, and the sample was observed under transmission electron microscope when it was dry.” for “respectively.”

The test system of test [5] is ANA. Briefly: Serologic detection of ANA by immunofluorescence on HEp-2 cell sheets, serum of UV + LPS lupus model mice. The class given is in vivo, BALB/c mice. The following applies: day 14; positive controls (artesunate 2 mg/kg*d, prednisone 1 mg/kg*d) by stomach perfusion. Also on record: key: (+): positive; (−): negative; (++++): intenseintensity; (+++): stronger fluorescent intensity. As to the method:
as §1

The test system of test [6] is ANA. The description is as above. The class given is in vivo, BALB/c mice. The following applies: positive controls (artesunate 2 mg/kg*d, prednisone 1 mg/kg*d) by stomach perfusion. Also on record: key: (+): positive; (−): negative; (++++): intense fluorescence; (+++): stronger fluorescence; (++): weeker fluorescence. As for the experimental part: as §1
For another test, the system named is lupus erythematosus. Kind of test: Screening medicines for treatment of lupus erythematosus. The settings on record: screening of extracts and potency constituents; no method given.

“Also recorded” adds a separate entry of the source.

Turning to `C[C@H]1[C@H](OC(=O)CCC(=O)O)O[C@@H]2O[C@@]3(C)CC[C@H]4[C@H](C)CC[C@@H]1[C@@]24OO3` [Artesunate, artesunate, reference compound], in test [1] (day 14), the Anti-Rib entry was “(+)”, the Anti-Sm result is listed as “(+)”, the Anti-ssA result was “(+)” and the Anti-ssB result is reported as “(+)”. Also, in test [1] (day 21), the Anti-Rib result is on record as “(+)”, the Anti-Sm result was “(+)”, the Anti-ssA result is on record as “(+)” and the Anti-ssB result was “(+)”. Besides, in test [1] (day 28), the Anti-Rib result was “(−)”, the Anti-Sm result is given as “(+)”, the Anti-ssA result is given as “(+)” and the Anti-ssB entry is on record as “(+)”. For the same compound, the “ENA polypeptide antibodies found positive (FIG. 1)” value in test [1] is “anti-Sm, anti-ssA and anti-ssB bodies are positive”. In addition, in the test with ANA [2], the “fluorescence intensity of ANA (FIG. 5)” value is recorded as “doesn't decrease”. Besides, in test [3], the “basilar membrane of renal glomerulus and tubule, pathological section” value was “increased thickness compared with the normal mice”; the “glomerular basement membrane thickness compared with the normal mice (FIG. 9, FIG. 10)” value is on record as “increased thickness”. In addition, the “proliferative degree of renal glomerular capsule wall epithelial cells” value in test [4] is on record as “slightly relieves; also recorded: somewhat relieved”. In the test on ANA [5], the ANA result was “(++++)”. The ANA result in the test with ANA [6] (day 21) is “(+++)”. The ANA result in the test with ANA [6] (day 28) is “(+++)”.
As to `C[C@]12C=CC(=O)C=C1CC[C@@H]1[C@@H]2C(=O)C[C@@]2(C)[C@H]1CC[C@]2(O)C(=O)CO` [Prednisone, prednisone, reference compound], in test [1] (day 14), the Anti-Rib result was “(+)”, the Anti-Sm result is reported as “(+)”, the Anti-ssA result is given as “(+)” and the Anti-ssB entry is on record as “(+)”. Moreover, in test [1] (day 21), the Anti-Rib entry is “(+)”, the Anti-Sm entry is on record as “(+)”, the Anti-ssA result is “(+)” and the Anti-ssB entry was “(+)”. Further, in test [1] (day 28), the Anti-Rib result is “(+)”, the Anti-Sm entry is listed as “(+)”, the Anti-ssA entry is given as “(+)” and the Anti-ssB entry is reported as “(+)”. Further, in test [1], the “ENA polypeptide antibodies found positive (FIG. 1)” value is “anti-Sm, anti-ssA and anti-ssB bodies are positive”. In test [3], the “basilar membrane of renal glomerulus and tubule, pathological section” value is listed as “increased thickness compared with the normal mice”; the “glomerular basement membrane thickness compared with the normal mice (FIG. 9, FIG. 10)” value is listed as “obviously increased thickness”. Further, the “proliferative degree of renal glomerular capsule wall epithelial cells” value in test [4] is reported as “slightly relieves; also recorded: somewhat relieved”. Further, in the test with ANA [5], the ANA result is on record as “(++++)”. The ANA result in the test on ANA [6] (day 21) was “(+++)”. The ANA result with ANA [6] (day 28) is listed as “(+++)”.
As to `OCC1=C[C@@H](O)[C@@H]2C=CO[C@@H](O[C@@H]3O[C@H](CO)[C@@H](O)[C@H](O)[C@H]3O)[C@H]12` [aucubin], the “inhibition on lupus erythematosus” value in the test on lupus erythematosus is on record as “relatively obvious inhibition”.
On the same count and under the same terms, the same measure for `O=C(O)C1=CO[C@@H](O[C@@H]2O[C@H](CO)[C@@H](O)[C@H](O)[C@H]2O)[C@@H]2C(CO)=CC[C@H]12` [geniposidic acid]: “relatively obvious inhibition”.

For the origin of these results see patent US10058525B2, “Application of chlorogenic acid in preparing medicines for treating lupus erythematosus” (SICHUAN JIUZHANG BIOLOGICAL SCIENCE AND TECHNOLOGY CO., LTD., priority 2015, dated 2018).
